Results taken from patent US20230025836A1, “EYE DROP COMPOSITION FOR PREVENTING OR TREATING EYE DISEASE” (Samjin Pharmaceutical Co., Ltd., priority 2019, published 2023).
In brackets after ≈: the same amount, converted by molar mass.

Experiment: Solubility of the active material in water
Assay type: physicochemical
Excerpt: In one embodiment, the eye drop may comprise the above-described solubilizing agent, so that an active ingredient thereof may be well dissolved and may not be precipitated even after long-term storage, thus resulting in better physical stability and chemical stability. In one embodiment, a concentration of the solubilizing agent in the eye drop may be 0.1 w/v % to 25.0 w/v %. In one embodiment, the type of the solubilizing agent may not be particularly limited, but may include, for example, at least one selected from the group consisting of surfactants, solvents, and mixtures thereof as follows. […] Thus, in one embodiment, the eye drop may comprise the solubilizing agent to dissolve 3-phenyl-4-propyl-1-(pyridin-2-yl)-1H-pyrazol-5-ol by 0.1% (1,000 μg/mL) to 2.0% (20,000 μg/mL).

- solubility: ~3.4 µg/mL (≈ 12.2 µM)
SMILES: CCCc1c(-c2ccccc2)nn(-c2ccccn2)c1O [3-phenyl-4-propyl-1-(pyridin-2-yl)-1H-pyrazol-5-ol]
